The target of assay [1] is T1, human recombinant histamine H1 receptor (Homo sapiens, UniProt P35367).
T1 construct: expressed in transfected cells; host or cells: CHO-K1
Nature of the assay: Histamine H1 radioligand binding ([3H]Pyrilamine). As to conditions: read-out: Histamine H1 Binding (1 μM), percent inhibition of specific binding; compound at 1 μM; 1.2 nM [3H]Pyrilamine. How it is done:
To evaluate in radioligand binding assays the activity of compounds of the invention, human recombinant histamine H1 receptor expressed in Chinese hamster ovary (CHO) K1 cells (De Backer, M. et al, Biochem. Biophys. Res. Comm. 197(3):1601, 1993) in a modified Tris-HCl buffer (50 mM Tris-HCl, pH 7.4, 2 mM MgCl2, 100 mM NaCl, 250 mM Sucrose) was used. […] Non-specific binding was estimated in the presence of 1 μM Pyrilamine. Receptor proteins were filtered and washed, the filters were then counted to determine [^3H]Pyrilamine specifically bound. […] Biochemical assay results are presented as the percent inhibition of specific binding in Table 2.

Assay [2] deals with T2, human recombinant dopamine D2L receptor (Homo sapiens, UniProt P14416).
T2 construct: expressed in transfected cells; host or cells: CHO
T2 sequence (P14416 whole entry): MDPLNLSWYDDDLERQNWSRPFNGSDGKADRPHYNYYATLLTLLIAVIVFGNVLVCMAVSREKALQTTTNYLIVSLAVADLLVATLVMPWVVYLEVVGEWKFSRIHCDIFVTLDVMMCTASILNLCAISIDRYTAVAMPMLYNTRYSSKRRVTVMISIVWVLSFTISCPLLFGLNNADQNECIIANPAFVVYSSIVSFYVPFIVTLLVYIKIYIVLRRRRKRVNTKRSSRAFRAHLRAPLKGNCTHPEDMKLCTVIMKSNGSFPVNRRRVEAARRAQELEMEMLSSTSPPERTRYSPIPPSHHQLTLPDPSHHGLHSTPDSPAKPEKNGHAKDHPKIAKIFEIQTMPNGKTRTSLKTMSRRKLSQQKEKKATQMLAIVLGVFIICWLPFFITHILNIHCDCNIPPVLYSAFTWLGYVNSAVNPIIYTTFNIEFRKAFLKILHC
In words: Dopamine D2L radioligand binding ([3H]Spiperone). The following applies: read-out: Dopamine D2L (1 μM), percent inhibition of specific binding; compound at 1 μM; 0.16 nM [3H]Spiperone. As for the experimental part:
Non-specific binding was estimated in the presence of 10 μM Haloperidol. Receptor proteins were filtered and washed, the filters were then counted to determine [^3H]Spiperone specifically bound.

Assay [3] concerns the target T3, human recombinant serotonin (5-Hydroxytryptamine) 5-HT2A receptor (Homo sapiens, UniProt P28223).
T3 construct: expressed in transfected cells; host or cells: CHO-K1
In words: Serotonin 5-HT2A radioligand binding ([3H]Ketanserin). The following applies: compound at 0.1 μM; read-out: Inhibition of ligand binding, Serotonin 5-HT2A (percent inhibition of specific binding). As for the experimental part:
Compounds of the invention were incubated with 0.5 nM [^3H]Ketanserin for 60 min at 25° C. Non-specific binding was estimated in the presence of 1 μM Mianserin. Receptor proteins were filtered and washed, the filters were then counted to determine [^3H]Ketanserin specifically bound.

Assay [4] has as its target T4, human recombinant serotonin (5-Hydroxytryptamine) 5-HT2C receptor (Homo sapiens, UniProt P28335).
T4 construct: expressed in transfected cells; host or cells: CHO-K1
T4 sequence (P28335 33-458): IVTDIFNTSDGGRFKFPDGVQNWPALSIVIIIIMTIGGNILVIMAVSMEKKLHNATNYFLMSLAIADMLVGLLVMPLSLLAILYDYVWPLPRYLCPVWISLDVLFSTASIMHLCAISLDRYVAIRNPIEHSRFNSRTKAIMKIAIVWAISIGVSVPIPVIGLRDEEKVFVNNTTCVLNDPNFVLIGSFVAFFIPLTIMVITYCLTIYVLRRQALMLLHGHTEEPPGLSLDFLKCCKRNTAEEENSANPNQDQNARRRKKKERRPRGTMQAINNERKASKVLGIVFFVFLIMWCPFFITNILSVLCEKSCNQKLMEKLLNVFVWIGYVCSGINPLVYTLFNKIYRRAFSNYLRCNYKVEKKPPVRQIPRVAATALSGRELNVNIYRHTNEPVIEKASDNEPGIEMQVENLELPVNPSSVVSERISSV
In words: Serotonin 5-HT2C radioligand binding ([3H]Mesulergine). The following applies: compound at 0.1 μM; read-out: Inhibition of ligand binding, Serotonin 5-HT2C (percent inhibition of specific binding). As for the experimental part:
Compounds of the invention were incubated with 1 nM [^3H]Mesulergine for 60 min at 25° C. Non-specific binding was estimated in the presence of 1 μM Mianserin. Receptor proteins were filtered and washed, the filters were then counted to determine [^3H]Mesulergine specifically bound.

For assay [5], the target named is T5, human recombinant serotonin (5-Hydroxytryptamine) 5-HT6 receptor (Homo sapiens, UniProt P50406).
T5 construct: expressed in transfected cells; host or cells: HeLa
T5 sequence (P50406 whole entry): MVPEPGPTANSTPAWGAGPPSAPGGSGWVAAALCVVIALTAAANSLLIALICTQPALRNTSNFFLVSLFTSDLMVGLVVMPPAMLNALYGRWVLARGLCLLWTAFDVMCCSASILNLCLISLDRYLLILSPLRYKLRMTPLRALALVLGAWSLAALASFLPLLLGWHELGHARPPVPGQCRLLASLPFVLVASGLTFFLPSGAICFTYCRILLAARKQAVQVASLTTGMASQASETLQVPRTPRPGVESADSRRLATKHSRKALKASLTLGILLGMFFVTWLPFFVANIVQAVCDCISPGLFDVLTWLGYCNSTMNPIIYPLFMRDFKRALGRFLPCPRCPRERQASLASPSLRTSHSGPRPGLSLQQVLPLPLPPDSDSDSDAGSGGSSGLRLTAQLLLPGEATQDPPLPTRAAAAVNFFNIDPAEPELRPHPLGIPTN
In words: Serotonin 5-HT6 radioligand binding ([3H]LSD). As to conditions: compound at 0.1 μM; read-out: Inhibition of ligand binding, Serotonin 5-HT6 (percent inhibition of specific binding). From the text:
Receptor proteins were filtered and washed, the filters were then counted to determine [3H]LSD specifically bound.

Assay [6] addresses T6, human recombinant serotonin (5-Hydroxytryptamine) 5-HT7 receptor (Homo sapiens, UniProt P34969).
T6 construct: expressed in transfected cells; host or cells: CHO
In words: Serotonin 5-HT7 radioligand binding ([3H]LSD). The following applies: compound at 0.1 μM; read-out: Inhibition of ligand binding, Serotonin 5-HT7 (percent inhibition of specific binding). As for the experimental part:
Lysergic acid diethylamide (LSD) for 120 min. at 25° C. […] Receptor proteins were filtered and washed, the filters were then counted to determine [^3H]LSD specifically bound.

T6 sequence (P34969 whole entry): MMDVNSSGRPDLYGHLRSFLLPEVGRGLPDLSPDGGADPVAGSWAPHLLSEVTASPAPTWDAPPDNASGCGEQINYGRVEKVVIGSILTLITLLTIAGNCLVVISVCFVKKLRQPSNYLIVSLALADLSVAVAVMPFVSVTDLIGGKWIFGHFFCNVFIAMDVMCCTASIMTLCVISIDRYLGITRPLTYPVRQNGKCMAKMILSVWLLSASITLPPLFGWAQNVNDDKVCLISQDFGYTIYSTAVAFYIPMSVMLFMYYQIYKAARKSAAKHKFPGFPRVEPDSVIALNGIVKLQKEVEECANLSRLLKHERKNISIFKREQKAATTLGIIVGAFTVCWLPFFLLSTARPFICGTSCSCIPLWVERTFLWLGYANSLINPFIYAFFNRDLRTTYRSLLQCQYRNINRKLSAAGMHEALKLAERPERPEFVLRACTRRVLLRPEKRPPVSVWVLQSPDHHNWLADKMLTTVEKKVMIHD
T3 sequence (P28223 whole entry): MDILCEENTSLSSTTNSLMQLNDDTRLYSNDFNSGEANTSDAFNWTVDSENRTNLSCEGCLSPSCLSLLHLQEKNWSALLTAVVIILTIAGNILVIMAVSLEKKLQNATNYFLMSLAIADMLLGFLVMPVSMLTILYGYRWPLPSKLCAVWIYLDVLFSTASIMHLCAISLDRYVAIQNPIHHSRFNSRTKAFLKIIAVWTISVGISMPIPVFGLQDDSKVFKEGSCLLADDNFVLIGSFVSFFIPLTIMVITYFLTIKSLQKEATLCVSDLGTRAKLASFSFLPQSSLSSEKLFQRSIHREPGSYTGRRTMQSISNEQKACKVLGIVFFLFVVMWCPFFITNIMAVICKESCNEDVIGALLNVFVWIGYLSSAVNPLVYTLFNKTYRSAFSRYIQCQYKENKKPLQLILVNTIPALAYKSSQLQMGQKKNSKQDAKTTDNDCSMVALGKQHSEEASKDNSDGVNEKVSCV
T1 sequence (P35367 whole entry): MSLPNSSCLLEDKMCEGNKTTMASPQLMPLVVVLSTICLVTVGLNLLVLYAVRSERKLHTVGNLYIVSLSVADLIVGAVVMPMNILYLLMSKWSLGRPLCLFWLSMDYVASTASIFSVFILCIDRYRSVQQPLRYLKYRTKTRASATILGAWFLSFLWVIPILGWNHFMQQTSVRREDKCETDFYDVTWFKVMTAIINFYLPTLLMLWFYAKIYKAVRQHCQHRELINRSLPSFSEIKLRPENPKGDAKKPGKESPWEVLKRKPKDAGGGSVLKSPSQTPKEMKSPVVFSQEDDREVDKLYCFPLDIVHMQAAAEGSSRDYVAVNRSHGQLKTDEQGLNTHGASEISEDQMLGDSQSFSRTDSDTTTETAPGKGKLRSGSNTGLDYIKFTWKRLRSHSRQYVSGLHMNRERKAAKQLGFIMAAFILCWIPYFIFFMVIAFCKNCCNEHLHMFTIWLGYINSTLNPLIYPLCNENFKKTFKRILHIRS

As for `Cc1ccc2c(c1)c1c(n2-c2cccc3cnccc23)CCN(C)C1` [Compound 9, 5-isoquinolin-5-yl-2,8-dimethyl-2,3,4,5-tetrahydro-1H-pyrido[4,3-b]indole], the inhibition (as a rule, the relative decrease from the control value, in per cent) at 1 µM was found to be 65% in assay [1] and 0% in assay [2]. Besides, the inhibition at 0.1 µM in assay [3] came out at 54%; in assay [4], 77%; in assay [5], 5%; in assay [6], 59%.

In the case of `CN1CCc2c(c3cc(Cl)ccc3n2-c2cscc2-c2cccnc2)C1` [Compound 27], the inhibition at 1 µM in assay [1] worked out at 76%; in assay [2] it was 26%. Also, the inhibition at 0.1 µM stood at 67% in assay [3], 72% in assay [4], 30% in assay [5] and 94% in assay [6].

With `Cc1ccc2c(c1)c1c(n2-c2cncn2C)CCN(C)C1` [Compound 18, 2,8-dimethyl-5-(3-methyl-3H-imidazol-4-yl)-2,3,4,5-tetrahydro-1H-pyrido[4,3-b]indole], the results for the inhibition at 1 µM in assay [1] and in assay [2] were 79% and 13%, respectively. Further, the inhibition at 0.1 µM was found to be 14% in assay [3], 8% in assay [4], 2% in assay [5] and 22% in assay [6].

For the compound `Cc1ccc2c(c1)c1c(n2-c2cscc2-c2cccnc2)CCN(C)C1` [Compound 22, 2,8-dimethyl-5-(4-pyridin-3-yl-thiophen-3-yl)-2,3,4,5-tetrahydro-1H-pyrido[4,3-b]indole], the inhibition at 1 µM in assay [1] came to 85%; in assay [2] it was 39%. For the same compound, the inhibition at 0.1 µM is 75% in assay [3], 80% in assay [4], 14% in assay [5] and 91% in assay [6].

Consider `Cc1ccc2c(c1)c1c(n2-c2cscc2-c2ccncc2)CCN(C)C1` [Compound 20, 2,8-dimethyl-5-(4-pyridin-4-yl-thiophen-3-yl)-2,3,4,5-tetrahydro-1H-pyrido[4,3-b]indole], for which the values for the inhibition at 1 µM in assay [1] and in assay [2] were 42% and 9%, respectively. Also, the inhibition at 0.1 µM in assay [3] was 78%; in assay [4], 85%; in assay [5], 18%; in assay [6], 97%.

As for `Cc1ccc2c(c1)c1c(n2-c2cccc(N(C)C)c2)CCN(C)C1` [Compound 7, [3-(2,8-dimethyl-1,2,3,4-tetrahydro-pyrido[4,3-b]indol-5-yl)-phenyl]-dimethyl-amine], the inhibition at 1 µM was 43% in assay [1] and 31% in assay [2]. The inhibition at 0.1 µM in assay [3] came to 52%; in assay [4] it was 42%; in assay [5], 4%; in assay [6], 19%.

With `Cc1ccc2c(c1)c1c(n2-c2ccccc2-c2cccnc2)CCN(C)C1` [Compound 13, 2,8-dimethyl-5-(2-pyridin-3-yl-phenyl)-2,3,4,5-tetrahydro-1H-pyrido[4,3-b]indole], the values for the inhibition at 1 µM in assay [1] and in assay [2] were 72% and 21%, respectively. For the same compound, the inhibition at 0.1 µM in assay [3] came out at 73%; in assay [4] it was 73%; in assay [5] it was 14%; in assay [6], 47%.

Regarding `Cc1ccc2c(c1)c1c(n2-c2ccc(C)nc2)CCN(C)C1` [Compound 3, 2,8-dimethyl-5-(6-methyl-pyridin-3-yl)-2,3,4,5-tetrahydro-1H-pyrido[4,3-b]indole], the figures for the inhibition at 1 µM in assay [1] and in assay [2] were 10% and 16%, respectively. Moreover, the inhibition at 0.1 µM came out at 36% in assay [3], 26% in assay [4], 20% in assay [5] and 8% in assay [6].

As for `Cc1ccc2c(c1)c1c(n2-c2ccncc2)CCN(C)C1` [Compound 2, 2,8-dimethyl-5-pyridin-4-yl-2,3,4,5-tetrahydro-1H-pyrido[4,3-b]indole], the inhibition at 1 µM in assay [1] stood at 51%; in assay [2], 13%. Moreover, the inhibition at 0.1 µM in assay [3] turned out to be 74%; in assay [4], 54%; in assay [5], 17%; in assay [6], 36%.

Consider `Cc1ccc2c(c1)c1c(n2-c2ccc(C(F)(F)F)nc2)CCN(C)C1` [Compound 4, 2,8-dimethyl-5-(6-trifluoromethyl-pyridin-3-yl)-2,3,4,5-tetrahydro-1H-pyrido[4,3-b]indole], for which the inhibition at 1 µM in assay [1] was -1%; in assay [2] it was 0%. For the same compound, the inhibition at 0.1 µM in assay [3] came out at 67%; in assay [4] it was 73%; in assay [5], 14%; in assay [6], 1%.
